The target of the experiment is T1, RNR (RNR1:RNR2 1:1) (Homo sapiens, UniProt P23921).
T1 sequence (P23921 1-792): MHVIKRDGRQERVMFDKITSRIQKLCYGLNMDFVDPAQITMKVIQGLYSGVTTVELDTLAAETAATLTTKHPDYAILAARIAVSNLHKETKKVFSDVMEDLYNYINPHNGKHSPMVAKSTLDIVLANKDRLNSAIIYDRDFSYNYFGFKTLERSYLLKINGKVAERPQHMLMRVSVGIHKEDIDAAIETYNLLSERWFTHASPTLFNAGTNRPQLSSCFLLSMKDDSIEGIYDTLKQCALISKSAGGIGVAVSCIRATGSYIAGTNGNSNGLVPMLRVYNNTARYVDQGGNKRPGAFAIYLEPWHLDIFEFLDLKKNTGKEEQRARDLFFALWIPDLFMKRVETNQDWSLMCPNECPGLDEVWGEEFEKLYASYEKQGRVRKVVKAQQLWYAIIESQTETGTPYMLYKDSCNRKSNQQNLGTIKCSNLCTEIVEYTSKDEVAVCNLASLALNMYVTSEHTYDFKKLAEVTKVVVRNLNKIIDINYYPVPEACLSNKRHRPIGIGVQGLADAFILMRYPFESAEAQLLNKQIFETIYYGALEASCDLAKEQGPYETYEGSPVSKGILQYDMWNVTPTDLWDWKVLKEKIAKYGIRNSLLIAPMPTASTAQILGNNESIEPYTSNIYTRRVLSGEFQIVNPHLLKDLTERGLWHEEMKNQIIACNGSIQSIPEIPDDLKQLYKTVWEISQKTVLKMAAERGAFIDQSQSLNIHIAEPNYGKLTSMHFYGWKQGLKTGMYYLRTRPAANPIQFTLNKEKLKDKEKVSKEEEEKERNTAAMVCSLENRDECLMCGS
The experiment in a line: RNR enzyme activity, rapid-fire mass spectrometry (RFMS) assay. Particulars: RNR 50 nM, CDP 5 μM, ATP 1 mM, 37° C., 45 min, compounds screened up to 50 μM, read-out: RF/MS IC50. The class given is biochemical. The gist of the method: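 Human RNR1:RNR2 (1:1, 50 nM) pre-incubated 15 min at room temperature with compound, then reacted with 5 μM CDP and 1 mM ATP, no NADPH, for 45 min at 37 °C. Stopped with 6% HCOOH; turnover read by rapid-fire mass spectrometry; Triapine and hydroxyurea as reference compounds.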
As to `COCC1CCN(S(=O)(=O)N[C@H](c2n[nH]c(=O)o2)[C@H](C)c2c(F)ccc(C)c2C)CC1` [Example 127, N-((1S,2R)-2-(6-fluoro-2,3-dimethylphenyl)-1-(5-oxo-4,5-dihydro-1,3,4-oxadiazol-2-yl)propyl)-4-(methoxymethyl)piperidine-1-sulfonamide], the IC50 lay in the range of 100 to 1000 nM.

`Cc1ccc(F)c([C@@H](C)[C@H](NS(=O)(=O)N2CCCCC2C(=O)O)c2n[nH]c(=O)o2)c1C` (stereo partly drawn) [Example 13, 1-(N-((1S,2R)-2-(6-fluoro-2,3-dimethylphenyl)-1-(5-oxo-4,5-dihydro-1,3,4-oxadiazol-2-yl)propyl)sulfamoyl)piperidine-2-carboxylic acid]: the IC50 was 10000 to 100000 nM.

As to `Cc1ccc(F)c(C(C)[C@H](NS(=O)(=O)N2CCC(CN3CCCC3=O)CC2)c2n[nH]c(=O)o2)c1C` (stereo partly drawn) [Example 65, N-((1S)-2-(6-fluoro-2,3-dimethylphenyl)-1-(5-oxo-4,5-dihydro-1,3,4-oxadiazol-2-yl)propyl)-4-((2-oxopyrrolidin-1-yl)methyl)piperidine-1-sulfonamide], the IC50 fell in the range of 100 to 1000 nM.

Take `Cc1ccc(F)c(C(C)[C@H](NS(=O)(=O)N2CCC3(CCOCC3)CC2)c2n[nH]c(=O)o2)c1C` (stereo partly drawn) [Example 91, N-((1S)-2-(6-fluoro-2,3-dimethylphenyl)-1-(5-oxo-4,5-dihydro-1,3,4-oxadiazol-2-yl)propyl)-3-oxa-9-azaspiro[5.5]undecane-9-sulfonamide]: the IC50 is 100 to 1000 nM.

Regarding `COCC1CCCN(S(=O)(=O)N[C@H](c2n[nH]c(=O)o2)[C@@H](C)c2c(F)ccc(C)c2C)C1` (stereo partly drawn) [Example 130, N-((1S,2S)-2-(6-fluoro-2,3-dimethylphenyl)-1-(5-oxo-4,5-dihydro-1,3,4-oxadiazol-2-yl)propyl)-3-(methoxymethyl)piperidine-1-sulfonamide], the IC50 fell in the range of 1000 to 10000 nM.

Regarding `Cc1ccc(F)c(C(C)[C@H](NS(=O)(=O)N2CCC(F)(F)C2)c2n[nH]c(=O)o2)c1C` (stereo partly drawn) [Example 137, 3,3-difluoro-N-((1S)-2-(6-fluoro-2,3-dimethylphenyl)-1-(5-oxo-4,5-dihydro-1,3,4-oxadiazol-2-yl)propyl)pyrrolidine-1-sulfonamide], the IC50 was in the range of 10000 to 100000 nM.

Take `COC(=O)C1CC12CCN(S(=O)(=O)N[C@H](c1n[nH]c(=O)o1)C(C)c1c(F)ccc(C)c1C)CC2` (stereo partly drawn) [Example 92, methyl 6-(N-((1S)-2-(6-fluoro-2,3-dimethylphenyl)-1-(5-oxo-4,5-dihydro-1,3,4-oxadiazol-2-yl)propyl)sulfamoyl)-6-azaspiro[2.5]octane-1-carboxylate]: the IC50 was in the range of 100 to 1000 nM.

`Cc1ccc(F)c([C@@H](C)[C@H](NS(=O)(=O)N2CCc3ccc(Cl)c(Cl)c3C2)c2n[nH]c(=O)o2)c1C` [Example 108, 7,8-dichloro-N-((1S,2R)-2-(6-fluoro-2,3-dimethylphenyl)-1-(5-oxo-4,5-dihydro-1,3,4-oxadiazol-2-yl)propyl)-3,4-dihydroisoquinoline-2(1H)-sulfonamide]: the IC50 is 100 to 1000 nM.

Turning to `Cc1ccc(F)c([C@H](C)[C@H](NS(=O)(=O)N2CC3CC3C2)c2n[nH]c(=O)o2)c1C` (stereo partly drawn) [Example 104, N-((1S,2S)-2-(6-fluoro-2,3-dimethylphenyl)-1-(5-oxo-4,5-dihydro-1,3,4-oxadiazol-2-yl)propyl)-3-azabicyclo[3.1.0]hexane-3-sulfonamide], the IC50 fell in the range of 10000 to 100000 nM.

Take `Cc1ccc(F)c([C@@H](C)[C@H](NS(=O)(=O)N2CCC(C)CC2C)c2n[nH]c(=O)o2)c1C` (stereo partly drawn) [Example 8, N-((1S,2R)-2-(6-fluoro-2,3-dimethylphenyl)-1-(5-oxo-4,5-dihydro-1,3,4-oxadiazol-2-yl)propyl)-2,4-dimethylpiperidine-1-sulfonamide]: the IC50 was in the range of 1000 to 10000 nM.

Consider `Cc1ccc(F)c([C@@H](C)[C@H](NS(=O)(=O)N2CCC(Cl)(Cl)CC2)c2n[nH]c(=O)o2)c1C` [Example 97, 4,4-dichloro-N-((1S,2R)-2-(6-fluoro-2,3-dimethylphenyl)-1-(5-oxo-4,5-dihydro-1,3,4-oxadiazol-2-yl)propyl)piperidine-1-sulfonamide], for which the IC50 is no more than 100 nM.

Take `Cc1ccc(F)c([C@H](C)[C@H](NS(=O)(=O)N2CC3C(C2)C3(C)C)c2n[nH]c(=O)o2)c1C` (stereo partly drawn) [Example 103, N-((1S,2S)-2-(6-fluoro-2,3-dimethylphenyl)-1-(5-oxo-4,5-dihydro-1,3,4-oxadiazol-2-yl)propyl)-6,6-dimethyl-3-azabicyclo[3.1.0]hexane-3-sulfonamide]: the IC50 was in the range of 1000 to 10000 nM.

On to `C#CC1CCN(S(=O)(=O)N[C@H](c2n[nH]c(=O)o2)[C@@H](C)c2c(F)ccc(C)c2C)CC1` [Example 47, 4-ethynyl-N-((1S,2S)-2-(6-fluoro-2,3-dimethylphenyl)-1-(5-oxo-4,5-dihydro-1,3,4-oxadiazol-2-yl)propyl)piperidine-1-sulfonamide], for which the IC50 lay in the range of 10000 to 100000 nM.

Consider `CC(=O)[C@H]1CCCCN1S(=O)(=O)N[C@H](c1n[nH]c(=O)o1)[C@H](C)c1c(F)ccc(C)c1C` [Example 19, (R)-2-acetyl-N-((1S,2R)-2-(6-fluoro-2,3-dimethylphenyl)-1-(5-oxo-4,5-dihydro-1,3,4-oxadiazol-2-yl)propyl)piperidine-1-sulfonamide], for which the IC50 fell in the range of 1000 to 10000 nM.

Regarding `Cc1ccc(F)c(C(C)[C@H](NS(=O)(=O)N2CCC3(CC2)COC(=O)O3)c2n[nH]c(=O)o2)c1C` (stereo partly drawn) [Example 67, N-((1S)-2-(6-fluoro-2,3-dimethylphenyl)-1-(5-oxo-4,5-dihydro-1,3,4-oxadiazol-2-yl)propyl)-2-oxo-1,3-dioxa-8-azaspiro[4.5]decane-8-sulfonamide], the IC50 is 10000 to 100000 nM.

These data come from patent publication US20240425490A1, “SULFAMIDE RIBONUCLEOTIDE REDUCTASE (RNR) INHIBITORS AND USES THEREOF” (Boundless Bio, Inc., priority 2021, published 2024).
